According to ChEMBL document CHEMBL5465560, “Selectivity Literature for EUbOPEN Chemogenomic Library” (2024):

What was measured:
[1] = target: T1, Dual specificity mitogen-activated protein kinase kinase 4 (Homo sapiens) (UniProt P45985); assay: Selectivity interaction (ActivX KiNativ screen (kinase selectivity in THP-1 cell lysates)) EUB0000639a MAP2K4; format: subcellular; settings: lysate, at 0.04 µM
T1 sequence (whole entry): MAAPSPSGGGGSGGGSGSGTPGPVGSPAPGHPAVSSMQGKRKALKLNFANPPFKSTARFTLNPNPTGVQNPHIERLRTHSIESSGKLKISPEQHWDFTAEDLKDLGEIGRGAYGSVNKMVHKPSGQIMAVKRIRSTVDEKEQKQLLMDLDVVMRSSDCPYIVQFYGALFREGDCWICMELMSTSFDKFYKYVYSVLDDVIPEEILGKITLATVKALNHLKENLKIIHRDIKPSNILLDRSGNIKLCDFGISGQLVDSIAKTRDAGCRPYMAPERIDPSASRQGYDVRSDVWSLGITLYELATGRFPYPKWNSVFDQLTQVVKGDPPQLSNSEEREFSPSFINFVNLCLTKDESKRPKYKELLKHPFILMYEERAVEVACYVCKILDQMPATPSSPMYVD

[2] = target: Cyclin-dependent kinase 14 (Homo sapiens) (UniProt O94921); assay: Selectivity interaction (ActivX KiNativ screen (kinase selectivity in THP-1 cell lysates)) EUB0000639a CDK14; format: subcellular; settings: lysate, at 0.01 µM
[3] = target: T2, Protein kinase C iota type (Homo sapiens) (UniProt P41743); assay: Selectivity interaction (ActivX KiNativ screen (kinase selectivity in THP-1 cell lysates)) EUB0000639a PRKCI; format: subcellular; settings: lysate, at 0.04 µM
T2 sequence (whole entry): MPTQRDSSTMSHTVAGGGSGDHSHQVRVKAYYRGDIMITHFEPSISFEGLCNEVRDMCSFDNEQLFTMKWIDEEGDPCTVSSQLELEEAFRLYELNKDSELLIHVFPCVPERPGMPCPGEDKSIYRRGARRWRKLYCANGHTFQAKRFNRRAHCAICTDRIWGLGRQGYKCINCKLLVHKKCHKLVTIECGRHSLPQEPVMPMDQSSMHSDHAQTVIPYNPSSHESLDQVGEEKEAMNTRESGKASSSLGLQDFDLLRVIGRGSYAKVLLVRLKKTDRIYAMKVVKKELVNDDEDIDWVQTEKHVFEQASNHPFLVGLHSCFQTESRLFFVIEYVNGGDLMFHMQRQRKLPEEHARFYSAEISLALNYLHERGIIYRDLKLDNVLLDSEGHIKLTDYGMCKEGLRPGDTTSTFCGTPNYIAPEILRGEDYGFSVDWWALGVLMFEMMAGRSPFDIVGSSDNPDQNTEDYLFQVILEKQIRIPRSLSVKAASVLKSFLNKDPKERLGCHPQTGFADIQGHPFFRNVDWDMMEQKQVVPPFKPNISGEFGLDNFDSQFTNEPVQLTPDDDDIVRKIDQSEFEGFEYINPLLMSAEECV

[4] = target: Phosphatidylinositol 4,5-bisphosphate 3-kinase catalytic subunit gamma isoform (Homo sapiens) (UniProt P48736); assay: Selectivity interaction (KinomeScan (DiscoverX)) EUB0000695a PIK3CG; settings: at 100 nM
[5] = target: Serine/threonine-protein kinase Nek4 (Homo sapiens) (UniProt P51957); assay: Selectivity interaction (KinomeScan (DiscoverX)) EUB0000595a NEK4; settings: at 10 µM
[6] = target: AP2-associated protein kinase 1 (Homo sapiens, UniProt Q2M2I8); assay: Selectivity interaction (Ambit KINOMEscan and KiNATiv profiling in Jurkat cells) EUB0000090b AAK1; format: cell-based; settings: at 1 µM
[7] = tested on: Leucine-rich repeat serine/threonine-protein kinase 2 (Homo sapiens), Q5S007 [G2019S]; assay: (§1) Selectivity interaction (KinomeScan (DiscoverX)) EUB0000655a LRRK2; settings: at 10 µM
[8] = target: Leucine-rich repeat serine/threonine-protein kinase 2 (Homo sapiens, UniProt Q5S007); assay: as §1; settings: at 10 µM
[9] = target: Mitogen-activated protein kinase 4 (Homo sapiens) (UniProt P31152); assay: Selectivity interaction (KinomeScan (DiscoverX)) EUB0000045b MAPK4
[10] = target: Calcium/calmodulin-dependent protein kinase kinase 1 (Homo sapiens) (UniProt Q8N5S9); assay: Selectivity interaction (KinomeScan (DiscoverX)) EUB0000092b CAMKK1; settings: at 10 µM
[11] = target: Epidermal growth factor receptor (Homo sapiens, UniProt P00533); settings: at 10 µM
[12] = target: T3, Ephrin type-B receptor 3 (Homo sapiens) (UniProt P54753); assay: Selectivity interaction (KinomeScan (DiscoverX)) EUB0001619a EPHB3; settings: at 1 µM
T3 sequence (whole entry): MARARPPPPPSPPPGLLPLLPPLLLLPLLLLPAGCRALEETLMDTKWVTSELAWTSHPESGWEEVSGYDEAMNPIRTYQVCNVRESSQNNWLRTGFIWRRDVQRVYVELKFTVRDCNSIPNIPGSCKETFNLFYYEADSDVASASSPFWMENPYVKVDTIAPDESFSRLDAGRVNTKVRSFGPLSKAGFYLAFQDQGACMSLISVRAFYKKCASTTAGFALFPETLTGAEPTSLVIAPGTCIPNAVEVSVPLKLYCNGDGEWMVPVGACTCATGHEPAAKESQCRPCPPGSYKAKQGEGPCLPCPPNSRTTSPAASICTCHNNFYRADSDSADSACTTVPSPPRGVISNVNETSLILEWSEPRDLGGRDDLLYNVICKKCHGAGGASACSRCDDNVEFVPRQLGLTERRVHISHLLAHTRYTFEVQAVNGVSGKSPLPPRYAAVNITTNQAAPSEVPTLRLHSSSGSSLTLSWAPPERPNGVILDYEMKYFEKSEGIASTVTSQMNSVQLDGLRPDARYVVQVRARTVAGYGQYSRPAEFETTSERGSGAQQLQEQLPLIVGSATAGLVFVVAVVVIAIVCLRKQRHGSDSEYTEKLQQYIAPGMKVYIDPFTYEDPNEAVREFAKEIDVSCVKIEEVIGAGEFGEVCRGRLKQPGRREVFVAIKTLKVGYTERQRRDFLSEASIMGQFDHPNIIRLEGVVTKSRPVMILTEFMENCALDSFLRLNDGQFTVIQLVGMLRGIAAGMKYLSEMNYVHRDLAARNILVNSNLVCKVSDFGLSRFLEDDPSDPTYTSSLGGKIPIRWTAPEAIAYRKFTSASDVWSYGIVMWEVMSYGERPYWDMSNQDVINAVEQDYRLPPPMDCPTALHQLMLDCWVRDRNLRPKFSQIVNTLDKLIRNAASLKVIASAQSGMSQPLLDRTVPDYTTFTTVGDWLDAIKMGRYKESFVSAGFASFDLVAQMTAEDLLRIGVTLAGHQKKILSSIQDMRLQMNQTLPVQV

[13] = target: Tyrosine-protein kinase Srms (Homo sapiens) (UniProt Q9H3Y6); assay: Selectivity interaction (KinomeScan (DiscoverX)) EUB0001619a SRMS; settings: at 1 µM
[14] = target: Serine/threonine-protein kinase 10 (Homo sapiens) (UniProt O94804); assay: Selectivity interaction (ActivX KiNativ screen (ex vivo kinase selectivity in human PBMCs)) EUB0001619a STK10; format: cell-based; settings: PBMC, at 1 µM

Chain of Mitogen-activated protein kinase 4 (Homo sapiens) (P31152 whole entry): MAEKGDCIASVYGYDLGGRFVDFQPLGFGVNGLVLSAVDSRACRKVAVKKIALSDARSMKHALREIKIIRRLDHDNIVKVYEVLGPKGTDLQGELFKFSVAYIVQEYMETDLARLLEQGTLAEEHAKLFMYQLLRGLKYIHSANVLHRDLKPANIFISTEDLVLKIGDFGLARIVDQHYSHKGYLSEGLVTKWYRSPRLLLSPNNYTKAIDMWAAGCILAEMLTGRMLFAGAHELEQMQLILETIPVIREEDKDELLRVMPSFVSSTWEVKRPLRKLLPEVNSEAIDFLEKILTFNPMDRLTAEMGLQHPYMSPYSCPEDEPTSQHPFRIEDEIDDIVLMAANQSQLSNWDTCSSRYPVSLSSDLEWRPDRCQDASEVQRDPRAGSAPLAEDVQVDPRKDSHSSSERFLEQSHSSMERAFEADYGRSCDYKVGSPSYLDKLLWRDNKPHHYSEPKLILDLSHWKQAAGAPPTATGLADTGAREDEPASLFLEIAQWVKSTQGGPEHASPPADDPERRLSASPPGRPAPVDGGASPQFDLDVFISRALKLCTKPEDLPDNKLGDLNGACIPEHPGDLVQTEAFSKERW
Chain of AP2-associated protein kinase 1 (Q2M2I8 whole entry, looked up): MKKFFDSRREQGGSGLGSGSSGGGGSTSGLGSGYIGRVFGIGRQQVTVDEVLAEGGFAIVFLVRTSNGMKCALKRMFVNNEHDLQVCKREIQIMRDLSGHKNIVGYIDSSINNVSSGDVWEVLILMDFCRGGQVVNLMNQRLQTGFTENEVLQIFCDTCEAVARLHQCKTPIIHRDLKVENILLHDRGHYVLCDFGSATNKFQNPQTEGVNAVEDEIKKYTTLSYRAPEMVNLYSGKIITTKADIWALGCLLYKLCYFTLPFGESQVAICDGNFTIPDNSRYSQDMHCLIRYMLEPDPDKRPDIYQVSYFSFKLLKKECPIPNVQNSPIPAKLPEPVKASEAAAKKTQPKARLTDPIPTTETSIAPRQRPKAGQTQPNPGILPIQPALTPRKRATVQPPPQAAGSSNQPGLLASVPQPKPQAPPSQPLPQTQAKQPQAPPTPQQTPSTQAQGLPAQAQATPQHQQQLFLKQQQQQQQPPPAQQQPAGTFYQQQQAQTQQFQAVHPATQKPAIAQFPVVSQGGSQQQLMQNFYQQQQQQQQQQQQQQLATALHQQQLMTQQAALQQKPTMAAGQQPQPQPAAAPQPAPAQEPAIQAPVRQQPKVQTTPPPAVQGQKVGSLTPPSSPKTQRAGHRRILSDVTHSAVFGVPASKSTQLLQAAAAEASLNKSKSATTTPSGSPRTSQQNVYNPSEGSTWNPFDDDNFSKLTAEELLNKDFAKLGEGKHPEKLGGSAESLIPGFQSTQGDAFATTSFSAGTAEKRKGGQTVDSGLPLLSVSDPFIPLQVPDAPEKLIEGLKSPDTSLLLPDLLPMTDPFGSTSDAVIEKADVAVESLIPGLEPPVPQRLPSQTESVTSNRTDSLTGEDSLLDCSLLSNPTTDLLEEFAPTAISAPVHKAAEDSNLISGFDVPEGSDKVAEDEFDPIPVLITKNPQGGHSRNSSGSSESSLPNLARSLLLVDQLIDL
Chain of Epidermal growth factor receptor (P00533 whole entry): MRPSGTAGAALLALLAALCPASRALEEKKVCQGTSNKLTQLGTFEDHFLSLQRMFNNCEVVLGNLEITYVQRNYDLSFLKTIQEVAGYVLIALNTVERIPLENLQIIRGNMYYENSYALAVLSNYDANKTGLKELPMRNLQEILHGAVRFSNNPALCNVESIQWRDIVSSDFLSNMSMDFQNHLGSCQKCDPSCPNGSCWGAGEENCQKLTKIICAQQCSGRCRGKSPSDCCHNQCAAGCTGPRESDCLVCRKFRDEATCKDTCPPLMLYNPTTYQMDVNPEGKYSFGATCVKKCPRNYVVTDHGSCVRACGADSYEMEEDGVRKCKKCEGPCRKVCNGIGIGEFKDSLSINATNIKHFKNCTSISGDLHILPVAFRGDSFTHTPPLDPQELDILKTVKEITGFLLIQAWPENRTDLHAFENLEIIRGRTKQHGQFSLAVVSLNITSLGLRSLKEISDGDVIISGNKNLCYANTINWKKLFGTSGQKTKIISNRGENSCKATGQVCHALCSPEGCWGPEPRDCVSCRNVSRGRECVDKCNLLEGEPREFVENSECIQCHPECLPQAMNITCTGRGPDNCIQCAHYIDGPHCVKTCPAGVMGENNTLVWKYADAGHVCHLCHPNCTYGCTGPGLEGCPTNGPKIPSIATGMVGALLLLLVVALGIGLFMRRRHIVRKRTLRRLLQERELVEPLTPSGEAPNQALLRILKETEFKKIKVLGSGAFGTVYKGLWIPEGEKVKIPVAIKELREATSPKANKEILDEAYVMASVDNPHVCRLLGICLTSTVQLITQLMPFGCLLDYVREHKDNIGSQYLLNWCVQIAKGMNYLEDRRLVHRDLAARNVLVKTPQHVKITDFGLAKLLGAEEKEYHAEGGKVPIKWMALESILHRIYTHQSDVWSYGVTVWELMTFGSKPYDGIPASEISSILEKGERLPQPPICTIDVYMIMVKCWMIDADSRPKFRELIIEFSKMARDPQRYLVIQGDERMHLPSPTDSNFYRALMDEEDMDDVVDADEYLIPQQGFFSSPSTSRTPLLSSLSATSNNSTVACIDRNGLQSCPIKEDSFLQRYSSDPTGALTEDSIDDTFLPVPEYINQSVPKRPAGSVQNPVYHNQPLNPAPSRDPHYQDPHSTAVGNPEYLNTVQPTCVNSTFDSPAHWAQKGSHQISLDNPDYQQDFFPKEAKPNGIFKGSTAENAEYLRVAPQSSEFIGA
Chain of Serine/threonine-protein kinase Nek4 (Homo sapiens) (P51957 whole entry, looked up): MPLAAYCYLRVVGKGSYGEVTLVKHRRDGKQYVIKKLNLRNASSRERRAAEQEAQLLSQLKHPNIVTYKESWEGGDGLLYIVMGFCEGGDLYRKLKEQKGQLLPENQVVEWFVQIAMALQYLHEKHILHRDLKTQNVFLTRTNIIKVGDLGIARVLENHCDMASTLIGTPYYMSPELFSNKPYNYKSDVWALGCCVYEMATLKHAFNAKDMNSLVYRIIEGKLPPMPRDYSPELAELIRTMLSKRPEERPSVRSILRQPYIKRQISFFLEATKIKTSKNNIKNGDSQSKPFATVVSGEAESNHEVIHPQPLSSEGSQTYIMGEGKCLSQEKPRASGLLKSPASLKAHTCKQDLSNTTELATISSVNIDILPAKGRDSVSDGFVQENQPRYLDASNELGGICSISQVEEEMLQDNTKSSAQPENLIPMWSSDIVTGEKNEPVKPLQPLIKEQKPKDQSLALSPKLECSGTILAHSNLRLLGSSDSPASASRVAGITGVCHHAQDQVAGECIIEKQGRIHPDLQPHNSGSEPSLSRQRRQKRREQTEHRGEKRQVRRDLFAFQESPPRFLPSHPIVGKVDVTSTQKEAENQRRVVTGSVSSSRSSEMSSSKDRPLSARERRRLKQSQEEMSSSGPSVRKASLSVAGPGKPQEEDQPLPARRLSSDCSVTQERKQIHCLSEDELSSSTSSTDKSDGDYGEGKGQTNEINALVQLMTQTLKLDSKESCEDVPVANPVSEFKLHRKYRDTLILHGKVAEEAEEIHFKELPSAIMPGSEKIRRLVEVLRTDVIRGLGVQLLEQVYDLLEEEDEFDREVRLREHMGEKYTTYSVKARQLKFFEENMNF
Chain of Calcium/calmodulin-dependent protein kinase kinase 1 (Homo sapiens) (Q8N5S9 whole entry, looked up): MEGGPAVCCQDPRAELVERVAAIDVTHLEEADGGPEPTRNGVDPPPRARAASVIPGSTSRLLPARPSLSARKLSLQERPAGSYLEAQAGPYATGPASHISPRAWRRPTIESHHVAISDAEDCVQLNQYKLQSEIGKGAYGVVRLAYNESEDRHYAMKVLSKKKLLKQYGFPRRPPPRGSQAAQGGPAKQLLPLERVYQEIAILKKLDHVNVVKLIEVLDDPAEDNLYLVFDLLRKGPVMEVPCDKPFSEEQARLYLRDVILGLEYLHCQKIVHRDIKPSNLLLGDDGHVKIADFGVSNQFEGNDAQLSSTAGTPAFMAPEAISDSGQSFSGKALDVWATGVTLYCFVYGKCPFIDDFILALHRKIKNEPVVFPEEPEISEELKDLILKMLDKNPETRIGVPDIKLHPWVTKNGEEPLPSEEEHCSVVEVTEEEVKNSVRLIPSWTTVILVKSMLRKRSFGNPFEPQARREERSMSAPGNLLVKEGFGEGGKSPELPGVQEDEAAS
Chain of Cyclin-dependent kinase 14 (Homo sapiens) (O94921 whole entry): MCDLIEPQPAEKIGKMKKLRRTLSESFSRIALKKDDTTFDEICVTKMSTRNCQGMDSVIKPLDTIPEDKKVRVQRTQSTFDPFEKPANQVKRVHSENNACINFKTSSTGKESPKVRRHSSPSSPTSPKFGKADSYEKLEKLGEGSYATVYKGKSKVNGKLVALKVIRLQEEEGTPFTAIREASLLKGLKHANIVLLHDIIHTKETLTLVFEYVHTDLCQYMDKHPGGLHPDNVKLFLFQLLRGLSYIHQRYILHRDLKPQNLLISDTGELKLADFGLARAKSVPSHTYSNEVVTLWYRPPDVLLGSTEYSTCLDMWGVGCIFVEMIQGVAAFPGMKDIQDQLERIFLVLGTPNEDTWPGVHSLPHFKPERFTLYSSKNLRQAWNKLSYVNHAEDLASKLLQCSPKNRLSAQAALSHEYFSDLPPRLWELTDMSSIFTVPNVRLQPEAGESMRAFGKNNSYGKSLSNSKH
Chain of Tyrosine-protein kinase Srms (Homo sapiens) (Q9H3Y6 whole entry): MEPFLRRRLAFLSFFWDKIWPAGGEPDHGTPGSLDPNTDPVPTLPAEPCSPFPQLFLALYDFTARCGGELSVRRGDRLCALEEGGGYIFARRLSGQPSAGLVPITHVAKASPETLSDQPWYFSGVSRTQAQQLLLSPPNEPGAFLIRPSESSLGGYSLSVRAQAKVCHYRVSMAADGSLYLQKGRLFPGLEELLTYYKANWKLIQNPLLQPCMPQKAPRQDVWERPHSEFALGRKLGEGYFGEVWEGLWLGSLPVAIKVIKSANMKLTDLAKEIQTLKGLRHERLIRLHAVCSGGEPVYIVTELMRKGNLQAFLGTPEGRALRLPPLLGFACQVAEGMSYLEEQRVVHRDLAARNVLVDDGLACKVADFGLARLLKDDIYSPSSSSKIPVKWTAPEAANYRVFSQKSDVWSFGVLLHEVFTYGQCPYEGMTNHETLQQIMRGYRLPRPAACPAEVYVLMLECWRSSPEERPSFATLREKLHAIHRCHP

Structure (SMILES): CC[C@@H]1[C@H](F)C(=O)N[C@@H]1COc1nccc2cc(C(N)=O)c(OC)cc12 [ZIMLOVISERTIB]
- % of inhibition [1]: 8%
- % of inhibition [2]: -16.8%
- % of inhibition [3]: -0.9%

Structure (SMILES): Cc1cc(F)c(C(=O)Nc2cccc(-c3nncn3C(C)C)n2)cc1-n1cnc(C2CC2)c1
- % of control [4]: 100%

Structure (SMILES): COCC(=O)NC/C=C/c1ccc2ncnc(Nc3ccc(Oc4ccc(C)nc4)c(C)c3)c2c1 [CP-724714]
- % of control [5]: 100%

Structure (SMILES): CN(C)C/C=C/C(=O)Nc1ccc(C(=O)N2CCCC(Nc3ncc(Cl)c(-c4c[nH]c5ccccc45)n3)C2)cc1 (stereo not given)
- % of control [6]: 89%

Structure (SMILES): CN(C)CCOc1ccc(-c2nc(-c3ccncc3)c(-c3ccc4c(c3)CC/C4=N\O)[nH]2)cc1
- % of control [7]: 76%
- % of control [8]: 79%

Structure (SMILES): C=CC(=O)Nc1cc(-n2c(=O)ccc3cnc4ccc(-c5ccc(NS(C)(=O)=O)cc5)cc4c32)ccc1C
- % of control ([9]; at 1 µM): 91%
- % of control ([9]; at 10 µM): 100%

Structure (SMILES): CCC(=O)N1CCN(c2ccc(-n3c(=O)ccc4cnc5ccc(-c6cnc7ccccc7c6)cc5c43)cc2C(F)(F)F)CC1
- % of control [10]: 80%

Structure (SMILES): Cc1cc([C@@H](C)Nc2ccccc2C(=O)O)c2nc(N3CCOCC3)cc(=O)n2c1 [AZD-6482]
- % of control [11]: 96%

Structure (SMILES): N#Cc1cccc(-c2c[nH]c3ncnc(N4CCOCC4)c23)c1
- % of control [12]: 100%
- % of control [13]: 94%
- % of inhibition [14]: 54%
